For the experiment, the system named is murine fibrosarcomas (RIF−1 cells). In kind it is in vivo. Conditions: for Mean TVQT (± SE): RIF-1 tumors in C3H mice, paclitaxel 10 mg/kg, camptothecin 6 mg/kg, combinations with second agent 30 min after menogaril; for Mean TVQT (± SE) / Mean TVQT ± S.E.: menogaril 50 mg/kg; for Delay: median TVQT of treated group minus median of control; for Delay / TVQT/CTVQT / Median (TVQT): same doses; for Mean TVQT ± S.E.: RIF-1 tumors in female C3H mice, single i.p. injection, cisplatin 4 mg/kg, combination with cisplatin 30 min after menogaril, 4 mice per group. The protocol: Transplantable experimental murine fibrosarcomas (2×10^5 RIF−1 cells) were grown intradermally in the flanks of 3 month old female C3H mice (Charles River, Holister, Calif.). When the tumors reached a volume of approximately 100 mm^3, the mice were randomly assigned to each experimental group (4 mice per group).
The chemopotentiator, menogaril, was obtained from NCI and was made to the appropriate concentration in DMSO. Cisplatin (David Bull Laboratories- Mulgrave, Australia, lot. 5201844x) was made to the appropriate concentration in water for injection. The compositions were injected systemically (i.e., intraperitoneally, i.p.), in a volume of 100 microliters. For the treatment of group 3, the chemopotentiator, menogaril, was injected 30 minutes prior to the injection of cisplatin. After treatment, the growth of the tumors was monitored three times per week by caliper measurements of three perpendicular diameters of the tumor and calculation of tumor volume from the formula: […]
The tumors were followed until they reached a size of four times their day zero treatment volume (TVQT), or up to 30 days after treatment, whichever came first. The data is expressed as the “tumor volume quadrupling time” (TVQT) mean and as the “delay.” Mean TVQT is the mean days required for individual tumors to grow to four times the tumor volume at the initial treatment day. The “delay” is the median of days required for a tumor to grow to four times the mean size of the treated group, minus the median of days required to grow to four times the mean size of the control group. The data is also expressed as the ratio of the tumor volume quadrupling time of the treated tumor over the untreated control group (TVQT/CTVQT). Increasing values of this ratio indicate increased antitumor response.
The ability of menogaril to enhance the effect of camptothecin or paclitaxel was also studied, using the same methods described in Example 1. […] For each injection, 100 microliters was injected.

The mark [1] stands for this setting: Example 2, Table 4, ratio of treated group over untreated control, IP.
The mark [2] stands for this setting: Example 1, Table 3, ratio of TVQT of treated group over untreated control, i.p.

These results are taken from US20020022652A1, “Methylnogarol compositions and uses thereof” (priority 2000, published 2002).

Read-outs that look alike come from different tables or passages of the source.

As for `CC[C@@]1(O)C(=O)OCc2c1cc1n(c2=O)Cc2cc3ccccc3nc2-1` [Camptothecin, camptothecin], under “Example 2, Table 4, IP”, the “Mean TVQT (± SE)” value was 9.9 ± 0.5 days, the Delay is 1.44 and the “Median (TVQT)” value stood at 9.8 days. Moreover, under setting [1], the TVQT/CTVQT was 1.1.
Turning to `N.N.[Cl][Pt][Cl]` [Cisplatin, cis-diamminedichloroplatinum II], the “Mean TVQT ± S.E.” value (Example 1, Table 3) turned out to be 8.4 ± 0.3 days. Also, where the note is “Example 1, Table 3, i.p.”, the “Delay” value is 2.10 days and the “Median (TVQT)” value is 8.1 days. Under setting [2], the TVQT/CTVQT amounted to 1.3.
For the compound `CC(=O)O[C@H]1C(=O)[C@@]2(C)[C@H]([C@H](OC(=O)c3ccccc3)[C@]3(O)C[C@H](OC(=O)[C@H](O)[C@@H](NC(=O)c4ccccc4)c4ccccc4)C(C)=C1C3(C)C)[C@]1(OC(C)=O)CO[C@@H]1C[C@@H]2O` [Paclitaxel, paclitaxel], under “Example 2, Table 4, IP”, the “Mean TVQT (± SE)” value was determined as 9.0 ± 0.4 days, the Delay came to 0.36 and the “Median (TVQT)” value is listed as 8.7 days. Also, the TVQT/CTVQT under setting [1] came out at 1.0.
Take `CO[C@@H]1C[C@](C)(O)Cc2cc3c(c(O)c21)C(=O)c1c(O)cc2c(c1C3=O)O[C@@H]1O[C@@]2(C)[C@H](O)[C@@H](N(C)C)[C@@H]1O` [Menogaril, 2,6-Epoxy-2H-naphthaceno[1,2-b]oxocin-9,16-dione, 4-(dimethylamino)-3,4,5,6,11,12,13,14-octahydro-3,5,8,10,13-pentahydroxy-11-methoxy-6,13-dimethyl-,(2alpha,3beta,4alpha,5beta,6alpha, 11 alpha, 13alpha)-, (P)-]: the “Mean TVQT ± S.E.” value (Example 1, Table 3) is 9.1 ± 0.5 days. For the same compound, under “Example 1, Table 3, i.p.”, the “Delay” value was found to be 3.31 days and the “Median (TVQT)” value turned out to be 9.4 days. In addition, the TVQT/CTVQT under setting [2] is reported as 1.4. For the same compound, under “Example 2, Table 4, IP”, the “Mean TVQT (± SE)” value is 10.2 ± 0.8 days, the Delay worked out at 1.84 and the “Median (TVQT)” value came out at 10.2 days. Moreover, under setting [1], the TVQT/CTVQT is 1.2.
